Laboratory results reported in paper PMC12516689, “Stimuli-Responsive Hydrogels from Liquid–Liquid Phase Separations of FUS-Derived Peptides” (ACS Applied Materials & Interfaces, 2025).

Key:
[1] = Hydrogel formation, inverted test tube analysis; type: physicochemical; conditions: for Concentration at which self-supporting hydrogel is obtained: sonication
Procedure: Peptide solutions were dissolved in PBS at concentrations varying from 2.0 μM to 2.0 mM. To allow a complete dissolution, samples were sonicated for 15 min. Hydrogels were prepared by adding PBS to the peptide powder to a final concentration of 2 or 3 wt %. After sonication, samples were stored at 4 °C overnight and the hydrogel formation was macroscopically evaluated through inverted test tube analyses.
Self-supporting hydrogels of L1-L2 and of L1-L2-L3 were obtained starting from a concentration of 2 wt % when 10 mM PBS was used in place of water (inverted test tube, Figure a). […] From a biomedical perspective, achieving gelation at lower peptide concentrations is highly desirable to minimize potential cytotoxicity and facilitate in vivo applications. […] This sequence, in comparison to the L1 and L2 motifs, features a higher content of glycine residues and a single tyrosine, while L1 and L2 each contain two. The different behavior of L3 might therefore arise from a reduced number of π–π stacking interactions, a known driving factor in the gelation process, or the higher entropic cost associated with glycine residues.

[2] = Rheological studies of hydrogels as a function of temperature; type: physicochemical; conditions: amplitude 0.1%, frequency 1 Hz; for G′ (storage modulus) upon cooling back to 4 °C / G′ (storage modulus) upon heating to 80 °C / G′ (storage modulus), initial value at 4 °C: 2 wt % hydrogel in PBS; for G′ (storage modulus) upon cooling back to 4 °C: after cooling ramp 80 to 4 °C; for G′ (storage modulus) upon heating to 80 °C: end of heating ramp 4 to 80 °C; for G′ (storage modulus), initial value at 4 °C: start of heating ramp 4 to 80 °C
Procedure: Rheological measurements of freshly preformed hydrogels (1000 μL) were performed with a rotational controlled-stress Haake Mars 40 rheometer (Thermo Fisher, Germany) by using a 3.5 cm diameter flat-plate geometry (P35/TI) with a gap of 0.5 mm. The analyses were conducted at different temperatures increasing from 4 to 80 °C and then decreasing from 80 to 4 °C. Amplitude (γ) was set at 0.1% and Frequency 1 Hz. G′ (storage modulus) and G″ (loss modulus) are reported as a function of the temperature.
To study the mechanical behavior of the matrices, hydrogels from L1-L2-L3 and L1-L2 sequences were subjected to rheological measurements. The storage (G′) and loss (G″) moduli, two key parameters describing the viscoelastic behavior of materials, were studied as a function of the temperature. Measurements were conducted across the entire temperature range, increasing from 4 to 80 °C and subsequently decreasing from 80 to 4 °C. […] However, the heating/cooling process induced significant increase in the rigidity of both samples. […] For the L1-L2 sample, the initial values of G′ at these temperatures were 1 Pa at 4 °C, 32 Pa at 80 °C, and 7314 Pa upon cooling back at 4 °C. To enhance the hydrogel disaggregation response to temperature increase, we adopted a design strategy focused on incorporating disruptive elements into the peptide sequences. This approach stems from the insights that the L3 sequence has the potential to inhibit the aggregation of the multi-LARK peptides. Following this rationale, we initially synthesized a multi-LARK sequence made of L3-L2-L3 LCDs (Figure S13a).

[3] = Hydrogel stability in contact with acidic and basic solutions; type: physicochemical; conditions: preformed hydrogels, room temperature, macroscopically observed up to 7 days
Procedure: To address the impact of the primary sequence on the hydrogel’s sensitivity to external stimuli, their mechanical behavior as a response to pH and temperature triggers was tested. Preformed L1-L2 and L1-L2-L3 hydrogels were put in contact with both acidic (pH 5) and basic (pH 10) solutions at room temperature and were macroscopically observed over time up to 7 days. […] This behavior can be rationalized considering that the presence of ionizable acidic or basic amino acids typically drives pH-responsive properties in peptide-based systems. In our case, the sequences contain only a single acidic residue (Asp, D), which is located within the linker region rather than in the LARKS domains considered to be responsible for driving the gelation process.

[4] = Aggregation kinetics followed by self-fluorescence in microplate reader; type: physicochemical; conditions: 2.0 mM peptide in PBS; λex 355 nm, emission 460 nm over 300 h; 96-well plate, orbital shake 200 rpm; triplicate
Procedure: Aggregation kinetics of peptide samples at 2.0 mM were followed by using a FLUOstar Omega (BMG LABTECH) microplate reader. Aliquots of 100 μL of each sample were placed in wells of a 96-well plate and covered with an aluminum foil to avoid evaporation of the solvent. Experimental settings were: λex = 355 nm, gain 1000, bottom optic, orbital shake 200 rpm between readings. Emission intensity at 460 nm was recorded over 300 h and subtracted for the blank. Experiments were conducted in triplicate.
The aggregation kinetics of the four multi-LARK sequences were monitored using fluorescence experiments, by exploiting the photoemissive behavior of the peptides in the blue field. As the fluorescence emission of these sequences require the aggregation state, as shown by the analyses conducted in solution, it represents a convenient probe of the self-assembly process. Upon excitation at 355 nm of 2.0 mM peptide solutions, the emission at 460 nm was recorded across a 300 h period (Figure S9). By reporting the fluorescence intensity as a function of time, we observed consistent trends across the four multi-LARKS samples, characterized by three different kinetic phases. […] This lag-phase was followed by a linear increase of the fluorescence signal at 460 nm in a relatively short period for all the samples (between 5 and 30 h) except in the case of L1-L2, where this second phase was longer (∼80 h). […]

[5] = dissolved in water, overnight incubation at 4 °C; ref Eisenberg and co-workers; cited from earlier work
[6] = Critical aggregation concentration (CAC) by intrinsic self-fluorescence; type: physicochemical; conditions: 10 mM PBS pH 7.4, no external probe, excitation 310 nm, emission intensity at 407 or 417 nm vs concentration, break point, 20 °C
Procedure: A Shimadzu RF-6000 (Kyoto, Japan) spectrofluorometer was used to perform fluorescence measurements. Samples were placed in a 10.0 mm × 5.00 mm quartz cell and the settings used for the measurement were excitation and emission bandwidths of 2.5 nm and temperature of 20 °C. The critical aggregation concentration (CAC) of the peptides was estimated through the evaluation of the self-fluorescence behavior of the peptides. After excitation at 310 nm, the intensity of the emission band at 407 or 417 nm was checked and plotted as a function of concentration. Spectra were also recorded in excitation mode.
The ability of the multi-LARKS to self-assemble was evaluated in physiological buffer conditions (10 mM PBS, pH 7.4). Critical aggregation concentrations (CACs), designated as the minimum concentrations at which they spontaneously self-assemble, were assessed in the absence of any external fluorescence probe and by detecting the nonaromatic intrinsic self-fluorescence at increasing peptide concentrations. […] All the multi-LARK sequences here studied presented a near-UV emission, with a maximum of excitation at 310 nm.
By plotting the fluorescence intensity at the maximum emission wavelength as a function of concentration, CAC values, calculated at the break point, resulted 128 μM, 236 μM, 153 μM and 175 μM for L1-L2-L3, L1-L2, L1-L3, and L2-L3, respectively (see Table S2). […]

For “Ac-STGGYGGDTSYSSYGQSNGPSTGGYG-NH2 [L3-L2-L3]”, the Hydrogel formation ([1]; concentrations ranging from 2 to 5 wt %) was “unable to form hydrogels”.
For Ac-STGGYSGDTSYSSYGQS-NH2 [L1**-L2], the “Temperature at which hydrogel undergoes breakdown (unable to reform upon cooling)” value ([2]; 3 wt % hydrogel in PBS, heating 4 to 80 °C) was 55 °C and the “Concentration at which self-supporting hydrogel is obtained” value ([1]; 10 mM PBS, overnight at 4 °C) was 3 wt %.
In the case of Ac-SYGGYSGDTSYSSYGQS-NH2 [L1*-L2], the “G′ (storage modulus) upon cooling back to 4 °C” value [2] is reported as 154332 Pa, the “G′ (storage modulus) upon heating to 80 °C” value [2] is reported as 497 Pa and the “G′ (storage modulus), initial value at 4 °C” value [2] is reported as 818 Pa. The “Concentration at which self-supporting hydrogel is obtained” value ([1]; 10 mM PBS, overnight at 4 °C) was 2 wt %.
With Ac-SYSGYSGDTSYSSYGQS-NH2 [L1-L2] the Emission maximum of aggregation-induced fluorescence was 400 nm and the “Hydrogel stability to acidic (pH 5) and basic (pH 10) solutions” value [3] was “No significant variations”.
With “Ac-SYSGYSGDTSYSSYGQSNGPSTGGYG-NH2 [L1-L2-L3]” the “Lag-phase duration (constant fluorescence intensity) of aggregation kinetics” value [4] was ~50 h, the “G′ (storage modulus) upon cooling back to 4 °C” value [2] was 75762 Pa and the “G′ (storage modulus) upon heating to 80 °C” value [2] was 4708 Pa. For the same substance, the “G′ (storage modulus), initial value at 4 °C” value [2] was 1967 Pa, the “Concentration at which hydrogel forms in water” value [5] was 5 wt % and the “Hydrogel stability to acidic (pH 5) and basic (pH 10) solutions” value [3] was “No significant variations”. The “Concentration at which self-supporting hydrogel is obtained” value ([1]; 10 mM PBS, overnight at 4 °C) was ≥ 2 wt % and the “Critical aggregation concentration (CAC)” value [6] was 128 µM.
With Ac-SYSGYSNGPSTGGYG-NH2 [L1-L3] the “Lag-phase duration (constant fluorescence intensity) of aggregation kinetics” value [4] was ~50 h, the Hydrogel formation ([1]; 10 mM PBS, overnight at 4 °C) was “no gel formation” and the “Critical aggregation concentration (CAC)” value [6] was 153 µM.
